{"source": "PubChem BioAssay AID2060353", "about": "(Molecular Pharmacology Branch, DTP, NCI, 2025)", "tested_on": "521955-158-R2-J5-PDC spheroids with stroma, growth inhibition", "experiment": "Anticancer human tumor 521955-158-R2-J5-PDC patient-derived pancreatic carcinoma cell line growth inhibition [TAK]", "conditions": "for pIC50: curve of first compound; for viability, T/C: stronger effect = lower value", "text": "Combinatorial screen of targeted agents with TAK-243 and ipatasertib in multi-cell type tumor spheroids\nA high-throughput screen of multi-cell type tumor spheroids was designed to identify active combinations of targeted small molecules and TAK-243 or ipatasertib. Complex spheroids include a stromal component modeled by human endothelial cells (HUVEC) and fibroblasts modeled by human mesenchymal stem cells (MSCs). The concentration ranges selected for each drug and investigational agent were based upon clinically achievable concentrations if the clinical Cmax of the agent was known.\nCompounds. The drugs and investigational agents: TAK-243 (785004), ipatasertib (767898), everolimus (733504), selumetinib (741078), bortezomib (756655), trametinib (758246), ixazomib (758254), vemurafenib (761431), dabrafenib (764134), sapanisertib (764658), alpelisib (765974), and copanlisib (816437), were obtained from the National Cancer Institute (NCI) Developmental Therapeutics Program Chemical Repository. The FDA-approved anticancer drug set is available from the NCI Developmental Therapeutics Program. […] The stock solutions were prepared in dimethyl sulfoxide (DMSO, Sigma-Aldrich, St. Louis, MO, cat. D2650) at 800-fold the tested concentration and stored at -70 degrees C prior to their use. All drugs and investigational agents were tested over a range starting from a high concentration at or near the clinical Cmax and decreasing in half-log increments. If the clinical Cmax for an agent had not been determined, the highest concentration tested was 10 microM.\nNCI60 Cell Culture. NCI60 cell lines were obtained from the NCI Developmental Therapeutics Program Tumor Repository. For each lot of cells, the Repository performed Applied Biosystems AmpFLSTR Identifiler testing with PCR amplification to confirm consistency with the published Identifier STR profile for each cell line. Cells were kept in continuous culture for no more than 20 passages. The optimal seeding densities for each of the cell lines at each time point assessed were determined prior to performing the concentration response studies. Briefly, the NCI60 human tumor lines were grown as monolayers in RPMI 1640 medium supplemented with 10% FBS and 2 mmol/L L-glutamine.\nAn additional 2 lines were from the NCI60 cell line panel including melanomas, MALME-3M and SK-MEL-2. Pooled donor human umbilical vein endothelial cells (HUVEC, Lonza, cat. CC-2519) and human mesenchymal stem cells (hMSC, Lonza, cat. PT-2501) were purchased from Lonza (Walkersville, MD).\nPDMR cell lines were grown in complete medium (DC medium): Dulbecco's modified Eagle's medium (DMEM)/F12 supplemented with 5% fetal bovine serum (FBS), 2 mM L-glutamine, 100 U/mL penicillin and 100 µg/ml streptomycin, 0.4 µg/ml hydrocortisone, 10 ng/ml epidermal growth factor (EGF) recombinant human protein, 24 µg/mL adenine, and 0.1 mg/mL primocin. During culture from frozen stock vials, PDMR cells were cultured in the same medium containing 10 µM Y-27632 (see Table 3). The PDCs were cultured in complete DMEM/F12 media without 10 microM Y-27632 dihydrochloride for at least two passages prior to the screen. The pooled donor HUVEC and hMSC were cultured in endothelial cell growth medium 2 (PromoCell, Heidelberg, Germany, cat. C-22011) and mesenchymal stem cell growth medium 2 (PromoCell, cat. C-28009), respectively. For all experiments, HUVEC and hMSC were used at passages </=5.\nFor the pre-screen, cell seeding densities were determined from a titration spanning the range from 5,000 to 313 cells per well. The mct-spheroids including 60% malignant cells, 25% HUVEC and 15% MSC dispensed as a mixture into U-bottom Ultra-Low Attachment 384-well plates (Corning, NY)\nHigh-throughput Drug Combination Screening.\nPrior to their inoculation into 384-well plates, malignant cells, HUVEC, and hMSC were removed from T flasks using TrypLE express (Thermo Fisher Scientific, cat. 12605036) and harvested by centrifugation for 5 min at 233 x g. […]", "note": "pIC50: −log10 of the molar value."}
{"compound": "CC(C)CC(NC(=O)C(Cc1ccccc1)NC(=O)c1cnccn1)B(O)O", "note": "(stereo not given) + CC(C)NCC(C(=O)N1CCN(c2ncnc3c2C(C)CC3O)CC1)c1ccc(Cl)cc1;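 further: spheroids exposed to drugs for seven days before readout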;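 on viability, T/C: 100% = DMSO vehicle control viability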", "values": [{"measurement": "pIC50", "setting": "second compound 0.3 µM", "result": 8.24}, {"measurement": "pIC50", "setting": "second compound 0.949 µM", "result": 8.28}, {"measurement": "pIC50", "setting": "second compound 3 µM", "result": 8.30}, {"measurement": "pIC50", "setting": "second compound 9.49 µM", "result": 8.23}, {"measurement": "pIC50", "setting": "second compound 30 µM", "result": 8.41}, {"measurement": "viability, T/C", "setting": "second compound 0.3 µM, first compound 31.6 pM", "result": 105, "unit": "%"}, {"measurement": "viability, T/C", "setting": "second compound 0.3 µM, first compound 0.0001 µM", "result": 101, "unit": "%"}, {"measurement": "viability, T/C", "setting": "second compound 0.3 µM, first compound 0.000316 µM", "result": 91.4, "unit": "%"}, {"measurement": "viability, T/C", "setting": "second compound 0.3 µM, first compound 0.001 µM", "result": 92.8, "unit": "%"}, {"measurement": "viability, T/C", "setting": "second compound 0.3 µM, first compound 0.00316 µM", "result": 93.9, "unit": "%"}, {"measurement": "viability, T/C", "setting": "second compound 0.3 µM, first compound 0.01 µM", "result": 7.88, "unit": "%"}, {"measurement": "viability, T/C", "setting": "second compound 0.949 µM, first compound 31.6 pM", "result": 80.2, "unit": "%"}, {"measurement": "viability, T/C", "setting": "second compound 0.949 µM, first compound 0.0001 µM", "result": 85.4, "unit": "%"}, {"measurement": "viability, T/C", "setting": "second compound 0.949 µM, first compound 0.000316 µM", "result": 78.1, "unit": "%"}, {"measurement": "viability, T/C", "setting": "second compound 0.949 µM, first compound 0.001 µM", "result": 82.6, "unit": "%"}, {"measurement": "viability, T/C", "setting": "second compound 0.949 µM, first compound 0.00316 µM", "result": 91.8, "unit": "%"}, {"measurement": "viability, T/C", "setting": "second compound 0.949 µM, first compound 0.01 µM", "result": 7.37, "unit": "%"}, {"measurement": "viability, T/C", "setting": "second compound 3 µM, first compound 31.6 pM", "result": 70, "unit": "%"}, {"measurement": "viability, T/C", "setting": "second compound 3 µM, first compound 0.0001 µM", "result": 81.6, "unit": "%"}, {"measurement": "viability, T/C", "setting": "second compound 3 µM, first compound 0.000316 µM", "result": 76.6, "unit": "%"}, {"measurement": "viability, T/C", "setting": "second compound 3 µM, first compound 0.001 µM", "result": 78.2, "unit": "%"}, {"measurement": "viability, T/C", "setting": "second compound 3 µM, first compound 0.00316 µM", "result": 81.8, "unit": "%"}, {"measurement": "viability, T/C", "setting": "second compound 3 µM, first compound 0.01 µM", "result": 7.09, "unit": "%"}, {"measurement": "viability, T/C", "setting": "second compound 9.49 µM, first compound 31.6 pM", "result": 100, "unit": "%"}, {"measurement": "viability, T/C", "setting": "second compound 9.49 µM, first compound 0.0001 µM", "result": 110, "unit": "%"}, {"measurement": "viability, T/C", "setting": "second compound 9.49 µM, first compound 0.000316 µM", "result": 111, "unit": "%"}, {"measurement": "viability, T/C", "setting": "second compound 9.49 µM, first compound 0.001 µM", "result": 94.3, "unit": "%"}, {"measurement": "viability, T/C", "setting": "second compound 9.49 µM, first compound 0.00316 µM", "result": 113, "unit": "%"}, {"measurement": "viability, T/C", "setting": "second compound 9.49 µM, first compound 0.01 µM", "result": 4.23, "unit": "%"}, {"measurement": "viability, T/C", "setting": "second compound 30 µM, first compound 31.6 pM", "result": 54.3, "unit": "%"}, {"measurement": "viability, T/C", "setting": "second compound 30 µM, first compound 0.0001 µM", "result": 64.6, "unit": "%"}, {"measurement": "viability, T/C", "setting": "second compound 30 µM, first compound 0.000316 µM", "result": 56.2, "unit": "%"}, {"measurement": "viability, T/C", "setting": "second compound 30 µM, first compound 0.001 µM", "result": 56.7, "unit": "%"}, {"measurement": "viability, T/C", "setting": "second compound 30 µM, first compound 0.00316 µM", "result": 68.6, "unit": "%"}, {"measurement": "viability, T/C", "setting": "second compound 30 µM, first compound 0.01 µM", "result": 1.83, "unit": "%"}]}
{"compound": "Cn1cnc2c(F)c(Nc3ccc(Br)cc3Cl)c(C(=O)NOCCO)cc21", "note": "+ CC(C)NCC(C(=O)N1CCN(c2ncnc3c2C(C)CC3O)CC1)c1ccc(Cl)cc1", "values": [{"measurement": "pIC50", "setting": "second compound 0.3 µM", "result": 7.59}, {"measurement": "pIC50", "setting": "second compound 0.949 µM", "result": "> 8.02"}, {"measurement": "pIC50", "setting": "second compound 3 µM", "result": "> 8.02"}, {"measurement": "pIC50", "setting": "second compound 9.49 µM", "result": 7.69}, {"measurement": "pIC50", "setting": "second compound 30 µM", "result": "> 8.02"}, {"measurement": "viability, T/C", "setting": "second compound 0.3 µM, first compound 0.00949 µM", "result": 64.4, "unit": "%"}, {"measurement": "viability, T/C", "setting": "second compound 0.3 µM, first compound 0.03 µM", "result": 42.6, "unit": "%"}, {"measurement": "viability, T/C", "setting": "second compound 0.3 µM, first compound 0.0949 µM", "result": 36.7, "unit": "%"}, {"measurement": "viability, T/C", "setting": "second compound 0.3 µM, first compound 0.3 µM", "result": 38.3, "unit": "%"}, {"measurement": "viability, T/C", "setting": "second compound 0.3 µM, first compound 0.949 µM", "result": 27.7, "unit": "%"}, {"measurement": "viability, T/C", "setting": "second compound 0.3 µM, first compound 3 µM", "result": 20.4, "unit": "%"}, {"measurement": "viability, T/C", "setting": "second compound 0.949 µM, first compound 0.00949 µM", "result": 48.9, "unit": "%"}, {"measurement": "viability, T/C", "setting": "second compound 0.949 µM, first compound 0.03 µM", "result": 38.9, "unit": "%"}, {"measurement": "viability, T/C", "setting": "second compound 0.949 µM, first compound 0.0949 µM", "result": 28.5, "unit": "%"}, {"measurement": "viability, T/C", "setting": "second compound 0.949 µM, first compound 0.3 µM", "result": 20.9, "unit": "%"}, {"measurement": "viability, T/C", "setting": "second compound 0.949 µM, first compound 0.949 µM", "result": 15.8, "unit": "%"}, {"measurement": "viability, T/C", "setting": "second compound 0.949 µM, first compound 3 µM", "result": 5.06, "unit": "%"}, {"measurement": "viability, T/C", "setting": "second compound 3 µM, first compound 0.00949 µM", "result": 44.8, "unit": "%"}, {"measurement": "viability, T/C", "setting": "second compound 3 µM, first compound 0.03 µM", "result": 38.5, "unit": "%"}, {"measurement": "viability, T/C", "setting": "second compound 3 µM, first compound 0.0949 µM", "result": 28.6, "unit": "%"}, {"measurement": "viability, T/C", "setting": "second compound 3 µM, first compound 0.3 µM", "result": 25, "unit": "%"}, {"measurement": "viability, T/C", "setting": "second compound 3 µM, first compound 0.949 µM", "result": 14.1, "unit": "%"}, {"measurement": "viability, T/C", "setting": "second compound 3 µM, first compound 3 µM", "result": 5.64, "unit": "%"}, {"measurement": "viability, T/C", "setting": "second compound 9.49 µM, first compound 0.00949 µM", "result": 61, "unit": "%"}, {"measurement": "viability, T/C", "setting": "second compound 9.49 µM, first compound 0.03 µM", "result": 45, "unit": "%"}, {"measurement": "viability, T/C", "setting": "second compound 9.49 µM, first compound 0.0949 µM", "result": 29, "unit": "%"}, {"measurement": "viability, T/C", "setting": "second compound 9.49 µM, first compound 0.3 µM", "result": 21.3, "unit": "%"}, {"measurement": "viability, T/C", "setting": "second compound 9.49 µM, first compound 0.949 µM", "result": 13.5, "unit": "%"}, {"measurement": "viability, T/C", "setting": "second compound 9.49 µM, first compound 3 µM", "result": 5.67, "unit": "%"}, {"measurement": "viability, T/C", "setting": "second compound 30 µM, first compound 0.00949 µM", "result": 40.2, "unit": "%"}, {"measurement": "viability, T/C", "setting": "second compound 30 µM, first compound 0.03 µM", "result": 21.9, "unit": "%"}, {"measurement": "viability, T/C", "setting": "second compound 30 µM, first compound 0.0949 µM", "result": 17.9, "unit": "%"}, {"measurement": "viability, T/C", "setting": "second compound 30 µM, first compound 0.3 µM", "result": 10, "unit": "%"}, {"measurement": "viability, T/C", "setting": "second compound 30 µM, first compound 0.949 µM", "result": 3.77, "unit": "%"}, {"measurement": "viability, T/C", "setting": "second compound 30 µM, first compound 3 µM", "result": 1.5, "unit": "%"}]}
